This note sets out measurements from patent US20120136011A1, “COMPOUNDS AND METHODS FOR SKIN REPAIR” (ALLERGAN, INC., priority 2010, published 2012).

Data set [1] has as its system human adult skin fibroblasts (CRL-7346). In words: Collagen type I production in cultured adult skin fibroblasts (Western blot). Type of data set: cell-based. On the technique in general: Immunoblotting shows a protein as a band on a membrane.
Data set [2] concerns Sprague-Dawley rats. In words: Incisional skin wound model, 14 day pilot study, topical treatment. Type of data set: in vivo. How it is done:
(§1) Incisional Skin Wound Model and Assessment. Sprague-Dawley rats at 180-200 gram were anesthetized with isoflourane. After shaving, a 2-cm long incision was made, reaching the deep fascia on the back skin of rats under sterile conditions. The wounds were immediately closed with 4-0 sutures. A 14 day pilot study was carried out. The animals were topically treated with vehicle or Compound 1 at 0.004% twice daily. The vehicle contained ethanol 30%, propylene glycol 12%, dipropylene glycol 5%, benzyl alcohol 5%, glycerol 3% and normal saline 45%. The wound was photographed daily; biopsy was performed at 2, 3, 7 and 14 days post-surgery for histopathology and molecular biology analysis.
(§2) The wound tissue was biopsied for histopathology on day 3, 14 and 70. To observe the skin wound, paraffin-embedded wound sections were made. Regular H&E staining was carried out in comparison with Masson trichrome and/or Picosirus red to visualize the collagen fibers. To monitor myofibroblasts in skin wound, the sections were immunohistochemically stained to identify alpha-smooth muscle actin. To assess wound appearance, all the scar photos were mixed together by the end of each study. The scar severity was scored on a scale of 0 to 10, with 0 being invisible, 1 the minimal and 10 the worst. Each scar was divided into 4 regions, separated by suture sites; each quarter was scored independently; the mean of the 4 part scores was recorded as the gross score of each wound.

For data set [3], the system named is human fetal skin fibroblasts (CRL-7129). In words: Collagen type I production in cultured fetal skin fibroblasts (Western blot). The data set is classed as cell-based.
Data set [4] concerns Sprague-Dawley rats. In words: Incisional skin wound study comparing Compound 1 and TGF-β3 (intradermal injection, then topical). Particulars: for number of neutrophils counted in three sections of H&E stained tissues: 3 days post-surgery, n=5, vehicle 60.6±30, not statistically significant; for macroscopic surface appearance of wound sites / abnormal regions (dense, red, fine parallel fibers) on Picrosirius red stained sections: 70 days post-surgery; for abnormal regions (dense, red, fine parallel fibers) on Picrosirius red stained sections: versus vehicle; for widths of the abnormal structured dermis regions, Masson trichrome / gap width in-between the normal fibrils, Picrosirius red / collagen fibril type at wound sites, Picrosirius red under polarized light: day 14; for widths of the abnormal structured dermis regions, Masson trichrome / size of residual scar regions, Masson trichrome: versus vehicle treated group, p<0.01-0.05; for gap width in-between the normal fibrils, Picrosirius red: versus vehicle-treated group, p<0.05; for collagen fibril type at wound sites, Picrosirius red under polarized light: yellow large bundles versus green type III collagen; for size of residual scar regions, Masson trichrome: day 70. The data set is classed as in vivo. Here is the method: as §1
A similar skin wound study was also performed comparing the effects of Compound 1 and TGF-β3. In this study, intradermal injections of Compound 1 at 0.004%, TGF-β3 at 100 ng/200 μl or vehicle were given right before closing the wounds. Afterward, TGF-β3 was injected two more times, on day 1 and 2, and Compound 1 and vehicle were topically applied twice a day for the duration of the study. The vehicle was PBS with 0.1% BSA and 4 mM HCl in a total volume of 200 μl for injection. Skin wounds were imaged on day 3, 7, 14, and 70.
as §2

Setting [5] is: vehicle 100%, 48 hours treatment.
Where [6] appears, read: day 14, Masson Trichrome, versus vehicle.

As for `CC1(C)C(=O)[C@H](C/C=C\CCCC(=O)O)[C@@H](/C=C/[C@H](O)CCc2sc3ccccc3c2Cl)[C@@H]1O` [Compound 1], the “collagen type-1 production (in words)” value in data set [1] is “upregulated”. In addition, the “collagen type-1 production relative to vehicle” value in data set [1] (setting [5]) is reported as 128%. Also, in the data set with Sprague-Dawley rats [2] (7 days post-skin incision, 0.004% topical twice daily), the “epidermal layer thickness and structure at wound site” value is listed as “thickness close to the nearby normal epidermis”. In the data set with Sprague-Dawley rats [2] (7 days post-skin incision, vehicle had epidermal hyperplasia), the “epidermal thickness of vehicle-treated skin relative to Compound 1 treated epidermis” value is on record as 3 times. Besides, the “gross skin scar appearance” value with Sprague-Dawley rats [2] (14 days post-surgery, versus vehicle-treated animals) is “smaller and softer skin scar”. In the data set on Sprague-Dawley rats [2] (day 3 post-surgery, 0.004% topical twice daily), the “overall size of epidermal defects, vehicle-treated versus Compound 1 treated wounds” value is on record as “two times larger for vehicle-treated wounds”. Further, the “skin wound samples showing closed epidermis filled with keratinocytes” value with Sprague-Dawley rats [2] (day 3 post-surgery, 0.004% topical twice daily, vehicle 33%) is on record as 80%. Also, the “number of myofibroblasts (α-SMA-positive cells)” value in the data set with Sprague-Dawley rats [2] (day 3 samples, vehicle control 38±6.15/3 sections) was 25.8±7.45 /3 sections. In the data set on Sprague-Dawley rats [2] (setting [6]), the “scar width (abnormal fiber belt) in the middle and bottom parts of scars” value is listed as “significantly reduced”; the “scar width at the superficial region” value was “only a tendency to decrease”. The “neutrophil (polymorphonuclear cell) infiltration at wound sites” value with Sprague-Dawley rats [2] (days 2 and 3 post-surgery, versus vehicle) was “significantly reduced”. In addition, the “collagen type-1 production (in words)” value in data set [3] is on record as “upregulated”. Moreover, the “collagen type-1 production relative to vehicle” value in data set [3] (setting [5]) came to 200%. For the same compound, in the data set on Sprague-Dawley rats [4], the “number of neutrophils counted in three sections of H&E stained tissues” value amounted to 31.4±8; the “macroscopic surface appearance of wound sites” value was “wound sites were not even detectable”; the “abnormal regions (dense, red, fine parallel fibers) on Picrosirius red stained sections” value was “largely absent”; the “widths of the abnormal structured dermis regions, Masson trichrome” value is listed as “significantly smaller”. Besides, in the data set on Sprague-Dawley rats [4], the “gap width in-between the normal fibrils, Picrosirius red” value is “significantly narrower”; the “collagen fibril type at wound sites, Picrosirius red under polarized light” value is reported as “large yellow-stained collagen bundles almost crossing over the entire wound sites”; the “size of residual scar regions, Masson trichrome” value is on record as “remarkably smaller”.

For the compound “TGF-β3: a leading treatment for wounds, reportedly reducing skin scar in both animals and human”, in the data set on Sprague-Dawley rats [4], the “number of neutrophils counted in three sections of H&E stained tissues” value is given as 53.8±17; the “macroscopic surface appearance of wound sites” value is given as “still showed traces of wounds”; the “abnormal regions (dense, red, fine parallel fibers) on Picrosirius red stained sections” value is given as “largely absent”; the “widths of the abnormal structured dermis regions, Masson trichrome” value is “significantly smaller”. Besides, in the data set on Sprague-Dawley rats [4], the “gap width in-between the normal fibrils, Picrosirius red” value is “significantly narrower”; the “collagen fibril type at wound sites, Picrosirius red under polarized light” value was “some green fibers at the bottom of the wounds”; the “size of residual scar regions, Masson trichrome” value is “remarkably smaller”.
